In patent US11447466B2, “Substituted indole compounds useful as inhibitors of TLR7/8/9” (BRISTOL-MYERS SQUIBB COMPANY, priority 2017, dated 2022):

Legend:
Format in all cases: cell-based
[1] = biological target: T1, human TLR7 (Homo sapiens, UniProt Q9NYK1); test: TLR7 inhibition reporter assay (HEK-Blue SEAP reporter, gardiquimod stimulation); conditions: HEK-Blue cells overexpressing human TLR7, SEAP reporter, gardiquimod 7.5 μM, 22 hour incubation
T1 construct: host or cells: HEK-Blue cells
T1 sequence (Q9NYK1 27-1049): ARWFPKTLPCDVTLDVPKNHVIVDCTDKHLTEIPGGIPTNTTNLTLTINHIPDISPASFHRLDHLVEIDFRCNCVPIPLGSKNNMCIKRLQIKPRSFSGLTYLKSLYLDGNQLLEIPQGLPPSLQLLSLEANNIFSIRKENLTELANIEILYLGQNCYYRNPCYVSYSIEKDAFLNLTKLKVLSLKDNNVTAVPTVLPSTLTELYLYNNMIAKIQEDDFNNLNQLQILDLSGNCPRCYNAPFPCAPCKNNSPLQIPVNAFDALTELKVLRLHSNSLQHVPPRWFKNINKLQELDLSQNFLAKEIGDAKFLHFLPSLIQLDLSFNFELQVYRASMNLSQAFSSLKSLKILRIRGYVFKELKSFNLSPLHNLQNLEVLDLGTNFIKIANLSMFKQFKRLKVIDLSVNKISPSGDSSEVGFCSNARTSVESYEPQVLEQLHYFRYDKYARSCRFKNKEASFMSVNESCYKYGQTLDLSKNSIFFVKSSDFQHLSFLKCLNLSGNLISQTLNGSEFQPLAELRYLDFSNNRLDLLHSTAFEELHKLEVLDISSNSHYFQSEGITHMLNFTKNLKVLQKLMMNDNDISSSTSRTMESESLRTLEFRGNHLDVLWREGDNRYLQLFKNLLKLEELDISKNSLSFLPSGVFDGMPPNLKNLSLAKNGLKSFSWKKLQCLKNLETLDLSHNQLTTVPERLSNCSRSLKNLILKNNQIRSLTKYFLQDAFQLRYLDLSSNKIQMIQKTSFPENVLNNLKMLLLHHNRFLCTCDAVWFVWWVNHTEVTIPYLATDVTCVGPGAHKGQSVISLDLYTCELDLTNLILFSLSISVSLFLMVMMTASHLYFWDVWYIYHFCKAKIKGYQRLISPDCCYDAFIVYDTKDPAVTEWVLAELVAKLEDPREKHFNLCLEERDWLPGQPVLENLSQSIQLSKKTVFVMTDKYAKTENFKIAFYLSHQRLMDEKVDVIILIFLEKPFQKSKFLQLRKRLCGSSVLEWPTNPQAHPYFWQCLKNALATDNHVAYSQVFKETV
How it was run: (§1)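 Compound treatment: 30 min, RT, 0.05 nM–50 μM final. Agonist: TLR7 gardiquimod 7.5 μM; TLR8 R848 15.9 μM; TLR9 ODN2006 5 nM. Incubation 22 h, 37 °C, 5% CO2. Readout SEAP, HEK-Blue Detection.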

[2] = biological target: T2, human TLR8 (Homo sapiens, UniProt Q9NR97); test: TLR8 inhibition reporter assay (HEK-Blue SEAP reporter, R848 stimulation); conditions: HEK-Blue cells overexpressing human TLR8, SEAP reporter, R848 15.9 μM, 22 hour incubation
T2 construct: host or cells: HEK-Blue cells
T2 sequence (Q9NR97 27-1041): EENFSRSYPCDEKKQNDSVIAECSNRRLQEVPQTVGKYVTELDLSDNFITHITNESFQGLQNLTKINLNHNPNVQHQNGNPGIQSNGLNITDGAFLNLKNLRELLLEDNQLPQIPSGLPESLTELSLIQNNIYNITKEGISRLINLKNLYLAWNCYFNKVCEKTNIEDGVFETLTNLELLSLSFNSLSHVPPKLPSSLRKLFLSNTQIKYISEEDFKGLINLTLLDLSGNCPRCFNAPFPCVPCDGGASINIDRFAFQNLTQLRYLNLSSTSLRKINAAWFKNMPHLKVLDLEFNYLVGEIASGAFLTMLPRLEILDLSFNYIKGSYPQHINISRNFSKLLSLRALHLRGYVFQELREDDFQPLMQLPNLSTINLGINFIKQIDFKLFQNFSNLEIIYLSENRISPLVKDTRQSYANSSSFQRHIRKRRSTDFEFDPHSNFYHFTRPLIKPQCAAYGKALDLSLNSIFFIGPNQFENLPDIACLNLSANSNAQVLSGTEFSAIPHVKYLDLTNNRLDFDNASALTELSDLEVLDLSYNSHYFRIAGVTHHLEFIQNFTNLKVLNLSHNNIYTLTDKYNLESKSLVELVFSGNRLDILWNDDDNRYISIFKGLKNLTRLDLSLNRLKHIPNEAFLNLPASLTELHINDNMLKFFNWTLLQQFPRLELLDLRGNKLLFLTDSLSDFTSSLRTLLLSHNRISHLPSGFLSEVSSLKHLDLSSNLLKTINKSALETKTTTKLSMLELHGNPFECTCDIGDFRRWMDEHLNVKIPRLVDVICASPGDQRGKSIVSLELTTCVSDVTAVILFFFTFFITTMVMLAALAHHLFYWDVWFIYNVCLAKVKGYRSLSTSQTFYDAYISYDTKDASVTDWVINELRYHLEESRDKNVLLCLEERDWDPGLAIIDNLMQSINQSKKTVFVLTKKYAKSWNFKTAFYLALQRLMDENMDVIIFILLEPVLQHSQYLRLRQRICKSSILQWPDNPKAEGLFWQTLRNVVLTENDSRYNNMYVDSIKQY
How it was run: as §1

[3] = biological target: T3, human TLR9 (Homo sapiens, UniProt Q9NR96); test: TLR9 inhibition reporter assay (HEK-Blue SEAP reporter, ODN2006 stimulation); conditions: HEK-Blue cells overexpressing human TLR9, SEAP reporter, ODN2006 5 nM, 22 hour incubation
T3 construct: host or cells: HEK-Blue cells
T3 sequence (Q9NR96 26-1032): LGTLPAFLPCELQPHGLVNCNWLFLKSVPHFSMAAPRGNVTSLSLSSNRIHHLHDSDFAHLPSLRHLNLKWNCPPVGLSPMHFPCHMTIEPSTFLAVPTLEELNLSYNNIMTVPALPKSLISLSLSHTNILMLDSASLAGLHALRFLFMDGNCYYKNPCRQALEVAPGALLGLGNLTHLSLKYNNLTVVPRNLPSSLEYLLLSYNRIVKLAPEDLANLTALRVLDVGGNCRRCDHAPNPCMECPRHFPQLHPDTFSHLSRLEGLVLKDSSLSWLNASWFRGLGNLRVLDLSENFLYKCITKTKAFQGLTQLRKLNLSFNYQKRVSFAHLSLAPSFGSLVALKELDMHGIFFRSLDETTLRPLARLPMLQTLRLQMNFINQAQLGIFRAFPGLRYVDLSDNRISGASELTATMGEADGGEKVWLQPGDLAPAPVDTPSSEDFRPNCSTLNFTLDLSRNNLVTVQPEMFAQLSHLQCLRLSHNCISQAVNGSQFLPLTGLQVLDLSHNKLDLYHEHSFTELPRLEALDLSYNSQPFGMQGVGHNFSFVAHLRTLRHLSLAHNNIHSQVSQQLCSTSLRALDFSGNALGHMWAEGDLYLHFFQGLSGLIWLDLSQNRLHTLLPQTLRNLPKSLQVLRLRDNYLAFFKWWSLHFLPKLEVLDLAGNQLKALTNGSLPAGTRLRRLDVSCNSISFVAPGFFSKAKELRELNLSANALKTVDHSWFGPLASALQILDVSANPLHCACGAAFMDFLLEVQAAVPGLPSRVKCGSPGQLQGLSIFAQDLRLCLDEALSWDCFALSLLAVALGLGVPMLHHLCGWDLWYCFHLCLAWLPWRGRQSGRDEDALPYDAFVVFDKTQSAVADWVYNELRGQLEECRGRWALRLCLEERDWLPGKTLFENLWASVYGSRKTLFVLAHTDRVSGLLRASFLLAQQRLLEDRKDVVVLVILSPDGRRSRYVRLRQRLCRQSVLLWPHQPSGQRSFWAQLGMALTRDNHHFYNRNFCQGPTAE
How it was run: as §1

SMILES | IC50 [1] [nM] | IC50 [2] [nM] | IC50 [3] [nM]
Cc1cc(-c2[nH]c3ccc(C4CCN(CC(=O)N(C)C)CC4)cc3c2C(C)C)cn(C)c1=O [Example 71, 2-(4-(2-(1,5-dimethyl-6-oxo-1,6-dihydropyridin-3-yl)-3-isopropyl-1H-indol-5-yl)piperidin-1-yl)-N,N-dimethylacetamide] | 2.8 | 5.1 | 11000
Cc1c(-c2[nH]c3ccc(C4CCN(CCC(C)(C)O)CC4)cc3c2C(C)C)cn(C)c(=O)c1C [Example 73, 5-(5-(1-(3-hydroxy-3-methylbutyl)piperidin-4-yl)-3-isopropyl-1H-indol-2-yl)-1,3,4-trimethylpyridin-2(1H)-one] | 8 | 3.3 | 6070
Cc1cc(-c2[nH]c3ccc(C4CCN(CCC#N)CC4)cc3c2C(C)C)cn(C)c1=O [Example 76, 3-(4-(2-(1,5-dimethyl-6-oxo-1,6-dihydropyridin-3-yl)-3-isopropyl-1H-indol-5-yl)piperidin-1-yl)propanenitrile] | 4.4 | 4.7 | 19900
Cc1cc(-c2[nH]c3ccc(C4CCN(Cc5ccc(OC(F)(F)F)cc5)CC4)cc3c2C(C)C)cn(C)c1=O [Example 77, 5-(3-isopropyl-5-(1-(4-(trifluoromethoxy)benzyl)piperidin-4-yl)-1H-indol-2-yl)-1,3-dimethylpyridin-2(1H)-one] | 123 | 50.6 | 7850
Cc1cc(-c2[nH]c3ccc(C4CCN(Cc5cc(OC(F)F)ccc5F)CC4)cc3c2C(C)C)cn(C)c1=O [Example 78, 5-(5-(1-(5-(difluoromethoxy)-2-fluorobenzyl)piperidin-4-yl)-3-isopropyl-1H-indol-2-yl)-1,3-dimethylpyridin-2(1H)-one] | 67.6 | 64 | 34800
Cc1cc(-c2[nH]c3ccc(C4CCN(CCCC(F)(F)F)CC4)cc3c2C(C)C)cn(C)c1=O [Example 79, 5-(3-isopropyl-5-(1-(4,4,4-trifluorobutyl)piperidin-4-yl)-1H-indol-2-yl)-1,3-dimethylpyridin-2(1H)-one] | 11.1 | 10.8 | 3790
Cc1cc(-c2[nH]c3ccc(C4CCN(Cc5cc(Cl)ccc5F)CC4)cc3c2C(C)C)cn(C)c1=O [Example 80, 5-(5-(1-(5-chloro-2-fluorobenzyl)piperidin-4-yl)-3-isopropyl-1H-indol-2-yl)-1,3-dimethylpyridin-2(1H)-one] | 128 | 141 | 48800
Cc1cc(-c2[nH]c3ccc(C4CCN(CCC(N)=O)CC4)cc3c2C(C)C)cn(C)c1=O [Example 82, 3-(4-(2-(1,5-dimethyl-6-oxo-1,6-dihydropyridin-3-yl)-3-isopropyl-1H-indol-5-yl)piperidin-1-yl)propanamide] | 9.5 | 11.9 | 799
Cc1cc(-c2[nH]c3ccc(C4CCN(CC5CC5(F)F)CC4)cc3c2C(C)C)cn(C)c1=O (stereo not drawn) [Example 83, 5-(5-(1-((2,2-difluorocyclopropyl)methyl)piperidin-4-yl)-3-isopropyl-1H-indol-2-yl)-1,3-dimethylpyridin-2(1H)-one] | 3.9 | 1.2 | 7140

More lines, now with the values ahead:

IC50 [1] [nM] | IC50 [2] [nM] | IC50 [3] [nM] | SMILES
8.6 | 26.1 | 2450 | CC(C)c1c(-c2cc(CO)c(=O)n(C)c2)[nH]c2ccc(C3CCNCC3)cc12 [Example 70, 3-(hydroxymethyl)-5-(3-isopropyl-5-(piperidin-4-yl)-1H-indol-2-yl)-1-methylpyridin-2(1H)-one]
21.8 | 17.3 | ≥ 50000 | Cc1cc(-c2[nH]c3ccc(C4CCN(Cc5ncn(C)n5)CC4)cc3c2C(C)C)cn(C)c1=O [Example 72, 5-(3-isopropyl-5-(1-((1-methyl-1H-1,2,4-triazol-3-yl)methyl)piperidin-4-yl)-1H-indol-2-yl)-1,3-dimethylpyridin-2(1H)-one]
20.9 | 4.9 | 4330 | Cc1cc(-c2[nH]c3ccc(C4CCN(CCC(C)(C)O)CC4)cc3c2C(C)C)c(C)n(C)c1=O [Example 74, 5-(5-(1-(3-hydroxy-3-methylbutyl)piperidin-4-yl)-3-isopropyl-1H-indol-2-yl)-1,3,6-trimethylpyridin-2(1H)-one]
5 | 5.6 | 9330 | Cc1cc(-c2[nH]c3ccc(C4CCN(CC(C)C)CC4)cc3c2C(C)C)cn(C)c1=O [Example 75, 5-(5-(1-isobutylpiperidin-4-yl)-3-isopropyl-1H-indol-2-yl)-1,3-dimethylpyridin-2(1H)-one]
8.8 | 20.3 | ≥ 50000 | Cc1cc(-c2[nH]c3ccc(C4CCN(C5CCS(=O)(=O)C5)CC4)cc3c2C(C)C)cn(C)c1=O (stereo not drawn) [Example 81, 5-(5-(1-(1,1-dioxidotetrahydrothiophen-3-yl)piperidin-4-yl)-3-isopropyl-1H-indol-2-yl)-1,3-dimethylpyridin-2(1H)-one]
